According to patent US20260248747A1, “PHYSICAL PERFORMANCE AID” (aXichem AB, priority 2023, published 2026):
“And” between values parts separate entries of the source, which are not always exact repeats. Equal values may be shown once. “Also recorded” adds a separate entry of the source.

Columns and labels:
[1] = 1.2 mg purified capsaicin in gummy format; isokinetic knee extension; cited from earlier work
[2] = high-dose oral encapsulated capsaicin, 25.8 mg; cited from earlier work
trained men = conditions: acute 12 mg capsaicin; squat exercise; cited from earlier work
resistance trained men [3] = system: resistance trained men; parameters: species or system human; conditions: in vivo
resistance trained men [4] = system: resistance trained men; parameters: species or system human; conditions: in vivo, po
resistance trained men [5] = system: resistance trained men; parameters: species or system human; conditions: in vivo
resistance trained men [6] = system: resistance trained men; parameters: species or system human; conditions: in vivo; remark: listed apart in the source
[7] = system: healthy men with resistance training experience; parameters: species or system human; conditions: in vivo
[8] = system: healthy men with resistance training experience; parameters: species or system human; conditions: in vivo; remark: listed apart in the source
[9] = system: healthy men with resistance training experience; parameters: species or system human; conditions: in vivo; remark: listed apart in the source
[10] = system: healthy men with resistance training experience; parameters: species or system human; conditions: in vivo; remark: listed apart in the source
resistance trained men [11] = system: resistance trained men; parameters: species or system human; conditions: in vivo; remark: listed apart in the source

For COc1cc(CNC(=O)CCCC/C=C/C(C)C)ccc1O [capsaicin, 8-methyl-N-vanillyl-trans-6-nonenamide], which “summed torque or fatigue index” value [1] is on record?
The value was “did not reach significant differences”.

What about the “tolerability after oral supplementation” value [2] of the same compound?
The value was “intestinal discomfort”.

And the “number of repetitions until failure” value (trained men)?
The value was “increased significantly”.

And the “rated perceived exertion overall body (RPE-OB)” value (trained men)?
The value was “reduced”.

And the total weight lifted (trained men)?
Its total weight lifted is “increased significantly”.

Which results are given for phenylcapsaicyn?
percentage of change for urea values, post-hoc Wilcoxon comparison (resistance trained men [3]): significant higher percentage of change for LID compared to PLA; Urea (resistance trained men [3]; po): 40.77 ± 14.17 mg/dL and 37.48 ± 18.18 mg/dL and 29.77 ± 10.67 mg/dL and 30.31 ± 10.41 mg/dL; Lactate (% change) (resistance trained men [4]): 663.97 ± 352.36% and 653.16 ± 307.31%; 60% fastest velocity, post-hoc Bonferroni comparison (resistance trained men [5]): significant differences between LD and PLA; 60% fastest-V (resistance trained men [5]): 0.97 ± 0.07 m · s^−1 and 0.96 ± 0.07 m · s^−1; Fastest-V (resistance trained men [5]): 0.87 ± 0.03 m · s^−1 and 0.80 ± 0.06 m · s^−1; Mean-Vt (resistance trained men [5]): 0.61 ± 0.07 m · s^−1 and 0.64 ± 0.07 m · s^−1; Repetitions performed in the protocol (resistance trained men [5]): 24 ± 0.00; Slowest-Vt (resistance trained men [5]): 0.45 ± 0.09 m · s^−1 and 0.49 ± 0.09 m · s^−1; Weight (resistance trained men [5]): 87.69 ± 15.87 kg and 87.57 ± 14.69 kg; maximal velocity loss, post-hoc Bonferroni comparison (resistance trained men [5]): significant differences between HD and LD; mean velocity, post-hoc Bonferroni comparison (resistance trained men [5]): almost was achieved between HD and PLA; AST post values, post-hoc Wilcoxon comparison (resistance trained men [6]): significant higher post levels of AST for PLA compared to HD; AST (resistance trained men [6]; po): 17.40 ± 11.25 U/L and 16.37 ± 11.29 U/L and 27.06 ± 14.66 U/L and 22.39 ± 10.86 U/L; AST (% change) (resistance trained men [6]; po): 119.62 ± 166.08% and 110.21 ± 167.16%; CMJ height post values, post-hoc Wilcoxon comparison [7]: significant differences; countermovement jump (CMJ) post and post 24 stages [7]: exhibited higher values; percentage of change in CMJ from pre to post values, post-hoc analyses [7]: did not reach any significant difference; 60% load MDF VLA [8]: 94.20 ± 12.57% and 92.43 ± 15.57% and 87.66 ± 11.86% and 87.61 ± 11.16% and 89.62 ± 12.28% and 94.85 ± 19.89%; 60% load MDF VM [8]: 93.24 ± 12.84% and 87.62 ± 9.55% and 88.27 ± 13.74% and 87.29 ± 15.23% and 88.62 ± 16.06% and 84.97 ± 10.64%; 60% load RMS VLA [8]: 131.16 ± 36.34% and 144.45 ± 50.27% and 119.38 ± 47.67% and 103.95 ± 49.44% and 149.81 ± 47.00% and 133.16 ± 33.21%; 60% load RMS VLA, post-hoc Bonferroni comparison [8]: significant differences between PLA and LID; 60% load RMS VM [8]: 131.17 ± 29.13% and 120.88 ± 31.08% and 117.18 ± 19.75% and 112.41 ± 42.15% and 133.87 ± 43.81% and 138.30 ± 47.06%; Isometric MDF VLA [8]: 98.12 ± 9.79% and 99.07 ± 13.42% and 97.78 ± 9.79% and 100.39 ± 12.86%; Isometric MDF VM [8]: 93.75 ± 11.10% and 91.04 ± 14.79% and 97.28 ± 13.72% and 101.88 ± 18.22%; Isometric RMS VLA [8]: 99.88 ± 41.48% and 99.21 ± 50.39% and 126.91 ± 33.50% and 100.25 ± 25.60%; Isometric RMS VM [8]: 120.01 ± 58.48% and 118.65 ± 41.54% and 113.38 ± 24.62% and 102.79 ± 32.43%; Training MDF VLA [8]: 89.90 ± 10.21% and 90.47 ± 12.71% and 88.36 ± 11.03% and 89.99 ± 12.70% and 86.91 ± 9.27% and 89.91 ± 11.39%; Training MDF VM [8]: 85.63 ± 11.87% and 91.01 ± 15.42% and 84.07 ± 11.93% and 90.42 ± 18.35% and 83.74 ± 9.68% and 90.58 ± 15.25%; Training RMS VLA [8]: 123.84 ± 34.86% and 121.24 ± 36.40% and 146.42 ± 47.13% and 119.29 ± 38.40% and 135.14 ± 53.99% and 107.20 ± 42.77%; Training RMS VM [8]: 128.39 ± 50.89% and 111.81 ± 31.90% and 132.39 ± 40.98% and 109.58 ± 36.84% and 138.04 ± 55.37% and 107.44 ± 35.96%; training RMS VM, post-hoc Bonferroni comparison [8]: significant differences were found between HD and LID; 60% load MFP best [9]: 950.82 ± 170.05 N and 945.34 ± 152.48 N and 907.38 ± 148.53 N and 903.85 ± 155.90 N and 930.60 ± 146.67 N and 936.27 ± 149.32 N; 60% load MPP best [9]: 822.00 ± 166.47 W and 810.71 ± 157.90 W and 688.32 ± 166.67 W and 698.67 ± 180.46 W and 796.70 ± 149.05 W and 798.56 ± 170.19 W; 60% load MPV best [9]: 0.93 ± 0.06 m/s and 0.80 ± 0.08 m/s and 0.81 ± 0.12 m/s and 0.93 ± 0.09 m/s and 0.91 ± 0.08 m/s; % VL (percentage of velocity loss during a set) [9]: 29.78 ± 10.90% and 26.62 ± 9.37% and 30.91 ± 10.24% and 26.65 ± 11.73% and 34.36 ± 12.15%; MFP mean [9]: 974.60 ± 162.62 N and 962.14 ± 148.59 N and 950.75 ± 161.58 N and 942.66 ± 141.94 N and 941.04 ± 156.67 N and 931.41 ± 141.91 N; MPP Best [9]: 770.42 ± 151.29 W and 744.70 ± 169.44 W and 694.45 ± 160.43 W and 701.32 ± 147.81 W and 681.99 ± 149.20 W and 683.86 ± 141.59 W; MPP mean [9]: 626.70 ± 147.11 W and 612.99 ± 145.84 W and 559.89 ± 128.61 W and 583.27 ± 128.14 W and 539.99 ± 126.34 W and 548.46 ± 135.58 W; MPV best [9]: 0.78 ± 0.05 m/s and 0.79 ± 0.06 m/s and 0.72 ± 0.07 m/s and 0.74 ± 0.07 m/s and 0.71 ± 0.07 m/s and 0.73 ± 0.05 m/s; MPV mean [9]: 0.66 ± 0.07 m/s and 0.68 ± 0.07 m/s and 0.60 ± 0.07 m/s and 0.64 ± 0.08 m/s and 0.58 ± 0.08 m/s and 0.61 ± 0.08 m/s; MPV of individual repetitions, post-hoc Bonferroni [9]: differences between HD and PLA in repetition 23; also recorded: HD and LD in repetitions 15 and 16; Total volume load [9]: 2,014.57 ± 380.94 kg; MIF [10]: 1,175.92 ± 370.86 N and 1,182.71 ± 429.84 N and 1,063.035 ± 265.86 N and 1,091.67 ± 331.61 N and 1,084.25 ± 375.82 N and 1,131.50 ± 420.02 N; RFD0-50 [10]: 2,765.42 ± 1,725.44 N · s^1 and 2,544.07 ± 1,150.29 N · s^1 and 2,335.85 ± 1,408.53 N · s^1 and 2,375.33 ± 1,172.75 N · s^1 and 2,006.35 ± 773.62 N · s^1 and 2,190.07 ± 1,249.61 N · s^1; RFD0-100 [10]: 2,921.42 ± 1,353.33 N · s^1 and 2,585.57 ± 1,998.95 N · s^1 and 2,320.43 ± 1,229.46 N · s^1 and 1,968.46 ± 1,373.43 N · s^1 and 2,129.25 ± 942.03 N · s^1 and 2,377.32 ± 1,196.68 N · s^1; RFD0-150 [10]: 2,958.42 ± 1,280.93 N · s^1 and 2,635.67 ± 1,075.21 N · s^1 and 2,388.16 ± 1,184.60 N · s^1 and 2,129.54 ± 1,279.24 N · s^1 and 2,260.47 ± 1,032.89 N · s^1 and 2,450.52 ± 1,275.39 N · s^1; RFD0-200 [10]: 2,697.29 ± 1,219.14 N · s^1 and 2,456.98 ± 1,052.11 N · s^1 and 2,178.30 ± 1,101.08 N · s^1 and 1,973.26 ± 1,214.84 N · s^1 and 2,067.32 ± 978.09 N · s^1 and 2,361.75 ± 1,214.58 N · s^1; RFD0-400 [10]: 1,764.86 ± 898.55 N · s^1 and 1,784.80 ± 809.39 N · s^1 and 1,489.55 ± 733.99 N · s^1 and 1,521.34 ± 853.94 N · s^1 and 1,610.34 ± 773.99 N · s^1 and 1,664.43 ± 912.04 N · s^1; isometric mechanical outcomes (MIF, RFD), two-way repeated measures ANOVAs [10]: no significant differences for any outcome; PRS, one-way repeated measures ANOVA between conditions (resistance trained men [11]): no differences between conditions; RPE-AM (local RPE in quadriceps), Bonferroni post-hoc comparison (resistance trained men [11]): significant differences; RPE-OB, Bonferroni post-hoc analyses between conditions (resistance trained men [11]): no significant differences; perceived exertion for the active muscle, RPE-AM (resistance trained men [11]): reduced perceived exertion for the active muscle
